Data: PMC12372887, “Mechanism and cellular actions of the potent AMPK inhibitor BAY-3827” (Science Advances, 2025)
“Also recorded” adds a separate entry of the source.

Assays:
[1] = test system: AMPKα1α2+/+ control primary hepatocytes; assay: Lipogenesis assay ([14C]-acetate incorporation into fatty acids); assay type: cell-based, mouse
Experimental: Mouse hepatocytes were isolated by collagenase perfusion as previously described ([47]). Hepatocytes were seeded in medium Eagle-199 (MEM-199) (#41150, Thermo Fisher Scientific) containing penicillin G (100 U/ml), streptomycin (100 μg/ml), and 10% (v/v) fetal bovine serum (FBS). Hepatocytes were left for attachment (3 to 4 hours) and serum-starved overnight at 37°C with 5% CO2 in MEM-199 supplemented with penicillin G (100 U/ml), streptomycin (100 μg/ml), 10 nM insulin, and 100 nM dexamethasone. […] Cells were then harvested in 0.5 ml of phosphate-buffered saline (PBS), transferred into 1 ml of 40% KOH and 2 ml of methanol followed by 1-hour incubation at 80°C. Lipids were […] by acidifying the samples in 37% HCl and extracted with petroleum ether. Extracts were allowed to evaporate to dryness and then dissolved in Ultima Gold scintillation fluid for determination of [^14C]-acetate incorporation into lipids.

CDK9-Cyclin T1 = CDK9-Cyclin T1 (Homo sapiens, UniProt P50750); assay: Kinase panel (140 human kinases); assay type: biochemical
Procedure, shortened: (§1)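 Radioactive [γ-^33P]ATP filter-binding assay, run in duplicate; compounds tested at 0.1 μM and at 1 μM (BAY-3827). ATP at 5, 20 or 50 μM, chosen at or below each enzyme's Km for ATP. Values are mean remaining kinase activity (%) with SD.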

MARK3 = MARK3 (Homo sapiens, UniProt P27448); assay: Kinase panel (140 human kinases); assay type: biochemical
Procedure, shortened: as §1

FGF-R1 = FGF-R1 (Homo sapiens, UniProt P11362); assay: Kinase panel (140 human kinases); assay type: biochemical
Procedure, shortened: as §1

CK1γ2 = CK1γ2 (Homo sapiens, UniProt P78368); assay: Kinase panel (140 human kinases); assay type: biochemical
Procedure, shortened: as §1

TBK1 = biological target: T1, TBK1 (Homo sapiens, UniProt Q9UHD2); assay: Kinase panel (140 human kinases); assay type: biochemical
T1 sequence (Q9UHD2 1-729): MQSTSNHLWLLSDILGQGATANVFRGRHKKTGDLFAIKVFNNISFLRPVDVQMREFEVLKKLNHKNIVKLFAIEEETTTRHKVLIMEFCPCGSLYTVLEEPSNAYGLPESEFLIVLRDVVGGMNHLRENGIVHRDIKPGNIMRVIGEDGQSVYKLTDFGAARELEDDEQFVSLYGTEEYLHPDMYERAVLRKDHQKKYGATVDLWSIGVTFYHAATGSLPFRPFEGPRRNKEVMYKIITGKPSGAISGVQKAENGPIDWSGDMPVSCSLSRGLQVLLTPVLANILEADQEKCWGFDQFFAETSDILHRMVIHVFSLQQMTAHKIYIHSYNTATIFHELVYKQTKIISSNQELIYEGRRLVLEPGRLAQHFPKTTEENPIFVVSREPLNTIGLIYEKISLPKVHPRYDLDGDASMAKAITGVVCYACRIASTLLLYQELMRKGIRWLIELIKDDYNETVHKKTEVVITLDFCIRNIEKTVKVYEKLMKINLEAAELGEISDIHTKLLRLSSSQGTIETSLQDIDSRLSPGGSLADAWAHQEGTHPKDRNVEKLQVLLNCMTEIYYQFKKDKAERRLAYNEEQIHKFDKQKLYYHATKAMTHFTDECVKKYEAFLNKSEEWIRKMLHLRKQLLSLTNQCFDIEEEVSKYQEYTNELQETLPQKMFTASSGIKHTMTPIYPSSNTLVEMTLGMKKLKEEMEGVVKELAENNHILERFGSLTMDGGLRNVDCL
Procedure, shortened: as §1

[2] = test system: pThr172-AMPKα in U2OS cells; assay: HTRF assay of Thr172-AMPKα phosphorylation in U2OS cells; assay type: cell-based, human; conditions: for AMPK phosphorylation (pThr172): dose response; for EC50: Homo sapiens, U2OS
Experimental: (§2) Human osteosarcoma U2OS WT cells were obtained from John Rouse (MRC Protein Phosphorylation and Ubiquitylation Unit, University of Dundee) and were cultured in DMEM high glucose + GlutaMAX Supplement, pyruvate (Thermo Fisher Scientific, catalog no. 31966-021) containing penicillin G (100 U/ml), streptomycin (100 μg/ml), and 10% (v/v) FBS seeding with 50,000 cells per well in a 50-μl volume in culture 96-well cell culture plates (Corning Incorporated costar, #3599). The next day, the media were changed to 50 μl of serum-free media, and 50 μl of serum-free media containing BAY-3827 or BAY-974 was dispensed and left to incubate at 37°C for 30 min. […] HTRF assays using either phospho-Ser^79-ACC1 kit (Revvity, #64ACCPEG) or phospho-Thr^172-AMPK kit (Revvity, #64AMPKPEG) were performed in triplicate in HTRF 96-well low volume white plates (Revvity, #66PL96001) following manufacturer’s instructions. Sealed plates incubated overnight in darkness conditions were scanned at room temperature in Multimode Plate Reader EnVision (PerkinElmer) machine following HTRF setup recommendations for EnVision (Revvity), equipped with a top mirror LANCE/DELFIA single mirror (#412), a UV2 (TRF) 320 excitation filter (#111), emission filter APC 665 (#205), and second emission filter Europium 615 (#203), with a 2000-μs cycle and 60-μs delay, with the number of flashes set to 100 as well as for the 2nd detector. Results were viewed in EnVision Manager software (version 1.13.3009.1401) where 665/615 ratios were calculated, and data were normalized to control condition as %. All assay ratios between control lysate signal/nonspecific signal were greater than 2 as expected of a successful assay following the manufacturer’s instructions. Data were visualized in GraphPad Prism v10.

[3] = test system: pSer79-ACC1 in U2OS cells; assay: HTRF assay of Ser79-ACC1 phosphorylation in U2OS cells; assay type: cell-based, human; conditions: for IC50: Homo sapiens, U2OS
Experimental: as §2

Sequence of CDK9-Cyclin T1 (P50750 whole entry): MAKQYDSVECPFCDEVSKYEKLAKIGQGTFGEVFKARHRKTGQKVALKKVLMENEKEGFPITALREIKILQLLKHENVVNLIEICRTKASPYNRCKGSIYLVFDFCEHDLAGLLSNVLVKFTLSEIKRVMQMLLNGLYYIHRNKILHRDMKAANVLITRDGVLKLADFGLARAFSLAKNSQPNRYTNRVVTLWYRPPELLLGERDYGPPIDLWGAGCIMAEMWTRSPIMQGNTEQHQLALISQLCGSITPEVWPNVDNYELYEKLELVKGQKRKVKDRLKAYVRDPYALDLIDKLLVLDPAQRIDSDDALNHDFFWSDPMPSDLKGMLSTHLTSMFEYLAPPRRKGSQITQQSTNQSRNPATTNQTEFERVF
Sequence of CDK9-Cyclin T1 (O60563 whole entry partner): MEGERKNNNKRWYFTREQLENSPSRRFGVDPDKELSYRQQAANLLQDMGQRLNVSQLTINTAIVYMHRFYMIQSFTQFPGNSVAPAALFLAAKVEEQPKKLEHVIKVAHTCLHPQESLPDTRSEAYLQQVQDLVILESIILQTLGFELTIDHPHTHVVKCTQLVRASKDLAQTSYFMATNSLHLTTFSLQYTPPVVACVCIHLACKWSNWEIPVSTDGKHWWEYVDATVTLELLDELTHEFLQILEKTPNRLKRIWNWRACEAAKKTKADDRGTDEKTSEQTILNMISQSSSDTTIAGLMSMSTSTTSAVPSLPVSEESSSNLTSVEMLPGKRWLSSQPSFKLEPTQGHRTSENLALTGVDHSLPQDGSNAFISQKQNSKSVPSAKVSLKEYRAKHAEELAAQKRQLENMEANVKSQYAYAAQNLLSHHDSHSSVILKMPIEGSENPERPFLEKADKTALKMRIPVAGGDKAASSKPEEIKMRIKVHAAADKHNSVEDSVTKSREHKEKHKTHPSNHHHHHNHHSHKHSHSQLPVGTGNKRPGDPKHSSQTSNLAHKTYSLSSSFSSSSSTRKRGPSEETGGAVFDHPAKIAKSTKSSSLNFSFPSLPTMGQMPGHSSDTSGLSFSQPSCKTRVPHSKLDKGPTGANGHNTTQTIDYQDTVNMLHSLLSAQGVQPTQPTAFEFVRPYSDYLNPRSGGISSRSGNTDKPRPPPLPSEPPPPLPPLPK
Sequence of CK1γ2 (P78368 whole entry): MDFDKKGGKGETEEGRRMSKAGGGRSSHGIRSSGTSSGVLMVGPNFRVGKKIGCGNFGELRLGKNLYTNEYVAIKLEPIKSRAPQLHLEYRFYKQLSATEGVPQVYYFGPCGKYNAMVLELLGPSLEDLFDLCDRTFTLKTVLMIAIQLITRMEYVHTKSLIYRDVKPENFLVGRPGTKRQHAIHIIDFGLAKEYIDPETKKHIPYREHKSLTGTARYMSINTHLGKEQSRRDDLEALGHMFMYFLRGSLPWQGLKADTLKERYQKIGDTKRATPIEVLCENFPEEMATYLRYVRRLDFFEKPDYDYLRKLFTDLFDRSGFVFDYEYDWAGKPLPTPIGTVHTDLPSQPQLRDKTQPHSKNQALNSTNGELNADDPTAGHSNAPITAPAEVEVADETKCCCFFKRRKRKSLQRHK
Sequence of FGF-R1 (P11362 22-822): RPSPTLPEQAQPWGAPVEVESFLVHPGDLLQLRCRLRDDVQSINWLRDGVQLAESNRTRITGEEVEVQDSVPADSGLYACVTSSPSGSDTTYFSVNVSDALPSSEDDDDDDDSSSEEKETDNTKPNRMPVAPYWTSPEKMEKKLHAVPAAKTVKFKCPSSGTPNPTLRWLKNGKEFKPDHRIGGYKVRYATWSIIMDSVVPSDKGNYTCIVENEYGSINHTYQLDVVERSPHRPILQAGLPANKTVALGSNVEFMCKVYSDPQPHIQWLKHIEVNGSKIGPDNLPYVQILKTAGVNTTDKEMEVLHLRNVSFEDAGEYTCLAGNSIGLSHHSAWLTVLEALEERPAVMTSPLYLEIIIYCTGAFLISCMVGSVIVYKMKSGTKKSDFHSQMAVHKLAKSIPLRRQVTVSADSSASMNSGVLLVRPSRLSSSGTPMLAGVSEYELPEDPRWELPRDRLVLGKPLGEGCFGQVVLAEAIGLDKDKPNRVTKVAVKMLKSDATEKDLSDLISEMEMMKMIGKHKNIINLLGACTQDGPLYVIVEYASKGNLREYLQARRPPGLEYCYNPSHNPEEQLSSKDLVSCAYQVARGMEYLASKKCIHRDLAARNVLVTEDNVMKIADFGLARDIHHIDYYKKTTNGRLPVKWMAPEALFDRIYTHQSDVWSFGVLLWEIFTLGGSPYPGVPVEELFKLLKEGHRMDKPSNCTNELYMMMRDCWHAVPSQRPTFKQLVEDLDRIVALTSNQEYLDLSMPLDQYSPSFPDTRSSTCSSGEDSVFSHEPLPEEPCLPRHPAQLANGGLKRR
Sequence of MARK3 (P27448 whole entry): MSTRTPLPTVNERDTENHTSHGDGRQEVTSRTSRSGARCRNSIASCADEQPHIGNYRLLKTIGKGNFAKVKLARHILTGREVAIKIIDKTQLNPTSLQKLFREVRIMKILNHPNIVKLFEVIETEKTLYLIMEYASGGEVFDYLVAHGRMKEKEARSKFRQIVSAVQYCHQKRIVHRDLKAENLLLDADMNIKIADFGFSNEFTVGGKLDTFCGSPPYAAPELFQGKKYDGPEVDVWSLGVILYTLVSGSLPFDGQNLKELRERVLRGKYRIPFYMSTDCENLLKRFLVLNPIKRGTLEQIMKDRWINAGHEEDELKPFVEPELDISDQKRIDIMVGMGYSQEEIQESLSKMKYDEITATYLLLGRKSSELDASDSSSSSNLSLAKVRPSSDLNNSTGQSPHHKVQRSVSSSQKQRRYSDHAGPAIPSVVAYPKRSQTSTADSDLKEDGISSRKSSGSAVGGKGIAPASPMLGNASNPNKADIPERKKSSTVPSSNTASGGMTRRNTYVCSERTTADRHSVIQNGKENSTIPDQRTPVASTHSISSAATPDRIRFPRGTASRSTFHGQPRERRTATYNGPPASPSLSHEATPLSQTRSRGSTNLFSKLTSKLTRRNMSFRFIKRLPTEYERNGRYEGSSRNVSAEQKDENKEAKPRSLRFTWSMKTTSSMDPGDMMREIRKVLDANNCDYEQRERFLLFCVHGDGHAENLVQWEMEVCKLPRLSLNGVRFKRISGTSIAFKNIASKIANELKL

Row | SMILES | effect on lipogenesis ([1]; 5 μM, vehicle- and MK-8722–treated conditions) | remaining activity at 0.1 µM (CDK9-Cyclin T1) [%] | remaining activity at 0.1 µM (MARK3) [%] | remaining activity at 0.1 µM (FGF-R1) [%] | remaining activity at 0.1 µM (CK1γ2) [%] | remaining activity at 0.1 µM (TBK1) [%] | AMPK phosphorylation (pThr172) [2] | inhibition of ACC1 phosphorylation ([3]; up to highest tested concentration of 100 μM) | rescue of MK-8722–mediated inhibition of lipogenesis ([1]; 2.5 and 5 μM, + MK-8722 (10 μM)) | stimulation of lipogenesis ([1]; compound alone, 2.5 and 5 μM) [%] | inhibition at 0.1 µM (TBK1) [%] | EC50 ([2]; + MK-8722 (10 μM)) [nM] | EC50 ([2]; without MK-8722) [nM] | IC50 ([3]; + MK-8722 (10 μM)) [nM] | IC50 ([3]; without MK-8722) [nM]
1 | CC1=C(C#N)C(c2ccc3c(c2)c(NC(=O)c2ccccc2C)nn3C)C(C#N)=C(C)N1 [BAY-974, N-[5-(3,5-dicyano-2,6-dimethyl-1,4-dihydropyridin-4-yl)-1-methylindazol-3-yl]-2-methylbenzamide] | no effect | 114 | 80 | 91 | 112 | 91 | not | No inhibition |  |  |  |  |  |  | 
2 | CCc1ccccc1C(=O)Nc1n[nH]c2c(C)c(F)c(C3C(C#N)=C(C)N(C)C(C)=C3C#N)cc12 [BAY-3827, N-[5-(3,5-dicyano-1,2,6-trimethyl-4H-pyridin-4-yl)-6-fluoro-7-methyl-1H-indazol-3-yl]-2-ethylbenzamide] |  | 97 | 98 | 89 | 95 | ≤ 50 | dose-dependently increased |  | dose-dependently rescued; also recorded: fully reversing | 70 to 90 | ~60 | 570 | 1930 | 6360 | 930
